Source: ChEMBL document CHEMBL3832055, “DailyMed|setid=e57a1fb3-1bf5-4562-982c-52a6f5fb36ed | HYDROCHLOROTHIAZIDE - hydrochlorothiazide tablet | Aphena Pharma Solutions - Tenness ee, LLC”

Test: Evaluation of the plasma half-life for Hydrochlorothiazide for at least 24 hours following administration of Hydrochlorothiazide
Type: ADME, organism-based
Settings: human; dosed compound id 30, dosed compound name HYDROCHLOROTHIAZIDE, tissue Plasma

half-life: 5.6 to 14.8 h
SMILES: NS(=O)(=O)c1cc2c(cc1Cl)NCNS2(=O)=O [HYDROCHLOROTHIAZIDE]
